Earlier results as cited in patent US6410548B1, “Spiropiperidine derivatives as melanocortin receptor agonists” (Merck & Co., Inc., priority 1998, dated 2002).

How the values were obtained:
rodents = details: injected ICV; feeding models NPY, ob/ob, agouti, fasted
[1] = system: non-organic impotent patients; details: intramuscular, 0.025 mg/kg and 0.1 mg/kg, 10 non-organic impotent patients
normal male volunteers = details: intramuscular, 0.005-0.03 mg/kg, three normal male volunteers

Row | Substance | effect on food intake (rodents) | onset of transient erections [1] [min] | responders (transient erections) [1] | period of intermittent non-painful penile erections after dosing (normal male volunteers) [h]
1 | SHU-9119 | reverses this effect and can induce hyperphagia |  |  | 
2 | melanotan-II [MT-II] | reduces food intake | 50 to 180 | 8 | 1 to 5
